Data from US12582717B2, “Protein based excipient for active pharmaceutical ingredients” (ROUSSELOT B.V., priority 2016, dated 2026).
Values after ≈ are worked out from the molar mass of the structure shown. Values joined by “and” are separate entries in the source; they are usually repeats but may differ in a detail not shown here. Equal entries are not always repeated. Where two headings read alike, the source gives them in different places. Blank lines part the entries; values can stand above or below the compound they belong to.

What was measured:
[1] = Dissolution of solvent-cast protein films (Example 1); assay type: physicochemical; details: film cast from 5% solution in formic acid; 37° C., 0.1N HCl pH 1.5 for 90 minutes, then pH 6.8 up to 330 minutes
Procedure: In the following experiment 5% solutions of various proteins were dissolved in formic acid and solvent-casted into protein films. The proteins were selected from gelatin, BSA (albumin), pea, soy, whey and zein (corn). The protein films were then dissolved at 37° C. in 0.1N HCl with a pH of 1.5 for 90 minutes, after which the pH was adjusted to 6.8 over a time period up to 330 minutes.
The dissolution of the protein films was evaluated using spectrophotometry (absorbance at 280 nm), and plotted as a function of time.

[2] = Solubility statements in the description; assay type: physicochemical
BSA = target: T1, BSA (Bos taurus, UniProt P02769); test: Tryptophan quenching binding of Flubendazole to BSA; set-up: species or system bovine; details: read-out: dissociation constant Kd
T1 construct: from tissue; host or cells: bovine origin (tissue or fluid not specified)
Source text: For the following experiment the binding strength of a protein based excipient to a model API was verified. For the purposes of this experiment, BSA was the protein source, Flubendazole was used as the model API, formic acid served as the solvent and spray drying was chosen as the drying method.

[3] = Equilibrium solubility of Flubendazole in FaSSGF (RP-HPLC); assay type: physicochemical; details: FaSSGF (fasted state simulated gastric fluid), pH 1.6, fassgf or other biorelevant, thermodynamic from solid; FaSSGF (1.6 pH), excess Flubendazole rotated up to 72 hours; read-out: equilibrium solubility in FaSSGF medium
Procedure: The dissolution profile and supersaturation state (i.e., the available concentration) was tested using a dissolution media which simulates the juice present in the human stomach before (i.e. fasted state) eating food; namely FaSSGF (1.6 pH) available from Bio-relevant®. A suitable method for determining the concentration is Reversed phase High-performance liquid chromatography (RP-HPLC), which separates molecules based on hydrophobicity causing different retention times as they flow out the column. The further working principles of RP-HPLC are known in the art. The RP-HPLC set-up used an Eclipse Zorbax Agilent 5 μm (4.6×150 mm) column with a flow Rate of 1 ml/min. The injection volume was 20 μl with the mobile phase containing ACN/TFA 0.1% (55:45) and an elution time of Flubendazole about ±1.9 min. The wavelength for measurements was set at 280 nm.
Prior to the experiments, the solubility of Flubendazole in FaSSGF was determined to serve as the baseline reference value. The reference solution was prepared by bringing an excess of Flubendazole in 8 ml FaSSGF solution. This solution was rotated during 72 hours and a 1 ml sample was taken every 24 hours. These reference samples were filtered through a Polytetrafluoroethylene (PTFE) 0.45 μm filter to determine the concentration of Flubendazole through the tested RP-HPLC method. […]

T1 sequence (P02769 25-607): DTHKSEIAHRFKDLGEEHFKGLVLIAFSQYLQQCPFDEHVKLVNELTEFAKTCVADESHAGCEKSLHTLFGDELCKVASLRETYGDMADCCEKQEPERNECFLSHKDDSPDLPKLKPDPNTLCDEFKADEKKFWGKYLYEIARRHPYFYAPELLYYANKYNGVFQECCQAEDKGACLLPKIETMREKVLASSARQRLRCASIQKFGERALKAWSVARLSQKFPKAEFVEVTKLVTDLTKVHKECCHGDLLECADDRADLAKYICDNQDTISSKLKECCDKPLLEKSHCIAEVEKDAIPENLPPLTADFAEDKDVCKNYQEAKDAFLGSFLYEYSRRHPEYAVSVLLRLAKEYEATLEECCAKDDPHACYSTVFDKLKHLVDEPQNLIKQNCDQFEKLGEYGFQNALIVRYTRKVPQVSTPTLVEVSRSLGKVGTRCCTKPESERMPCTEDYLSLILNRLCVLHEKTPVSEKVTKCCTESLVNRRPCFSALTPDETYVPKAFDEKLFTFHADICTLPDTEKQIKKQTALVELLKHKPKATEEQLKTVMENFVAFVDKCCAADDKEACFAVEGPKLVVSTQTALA

Compound: gelatin
dissolution level of protein film [1]: (near) complete dissolution

Compound: Zein
dissolution level of protein film [1]: about 10%

solubility in methanol [2]: does not dissolve
Compound: CCCS(=O)(=O)Nc1ccc(F)c(C(=O)c2c[nH]c3ncc(-c4ccc(Cl)cc4)cc23)c1F [Vemurafenib]

Compound: COC(=O)Nc1nc2cc(C(=O)c3ccc(F)cc3)ccc2[nH]1 [Flubendazole]
Kd (BSA; pH 1.0): 234 µM and ~234 µM | Kd (BSA; pH 4.0): 133 µM and ~133 µM | Kd (BSA; pH 7.0): 116 µM and ~116 µM | solubility thermodynamic at 72 h [3]: 11.2 µg/mL (≈ 35.7 µM)
